Data reported in patent US20240025906A1 (NEURON23, INC., priority 2022, published 2024).
Where two headings read alike, the source gives them in different places.

Legend:
TYK2 JH2 = target: T1, TYK2 JH2 (Homo sapiens, UniProt P29597); test: TYK2 JH2 binding assay (KINOMEscan KdELECT competitive binding); settings: TYK2 JH2 domain
T1 construct: purchased DiscoverX (KINOMEscan KdELECT service); host or cells: E. coli BL21-derived (T7 phage display) or HEK-293
Method in brief: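 Competition binding, KdELECT format. Kinase (phage-tagged, E. coli BL21-derived host; or HEK-293, DNA-tagged) + ligand-coated streptavidin beads + cpd, 1 h RT, final DMSO 0.9%. Wash, elute 30 min with 0.5 μM non-biotinylated ligand; qPCR readout. Kd: 11-pt, 3-fold series.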

[1] = tested on: JAK1/TYK2 pSTAT5 (Tyr694/699) in THP-1 cell line; test: IFNa-stimulated JAK1/TYK2 pSTAT5 (Tyr694/699) inhibition cellular assay, AlphaLISA; format: cell-based; settings: Homo sapiens, THP-1 cells, AlphaLISA (Assay B)
Method in brief: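 Compound dilutions were dispensed first, and HBSS-suspended THP-1 cells were added on top (final top concentration 10000 nM, 6-fold series). After 1 h at 37 °C, IFNa (100 ng/mL as added) was applied for 30 min. Cells were then lysed and pSTAT5 was quantified by AlphaLISA.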

[2] = KINOMEscan KdELECT (Assay A), read-out: Biochemical TYK2_JH2_Kd
[3] = IFNa-stimulated, read-out: Cellular THP1_IFNa-pSTATS_IC50
[4] = DiscoverX KINOMEscan KdELECT (Assay A), read-out: Biochemical TYK2_DiscoverX_JH2_BND_Kd
[5] = IFNa-stimulated, read-out: Cellular_THP1_IFNa-pSTATS_TYK2
[6] = KINOMEscan KdELECT (Assay A), read-out: Biochemical TYK2_DiscoverX_JH2_BND_Kd
[7] = IFNa-stimulated pSTAT5 (Tyr694/699), read-out: Cellular_THP1_IFNa-pSTATS_TYK2

T1 sequence (P29597 589-875 limits assumed): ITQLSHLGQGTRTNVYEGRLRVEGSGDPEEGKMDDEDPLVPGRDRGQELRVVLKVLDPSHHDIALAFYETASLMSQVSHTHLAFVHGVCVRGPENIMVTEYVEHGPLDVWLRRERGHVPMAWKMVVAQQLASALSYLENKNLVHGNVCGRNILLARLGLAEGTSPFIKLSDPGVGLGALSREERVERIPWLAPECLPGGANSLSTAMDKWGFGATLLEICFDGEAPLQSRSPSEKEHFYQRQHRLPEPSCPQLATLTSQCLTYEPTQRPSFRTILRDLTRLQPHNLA

In the case of `CNc1ncc(-c2ccn(CC(F)(F)F)n2)c2cc(NC(=O)C3CC3)ncc12` [Example 64, N-(8-(methylamino)-5-(1-(2,2,2-trifluoroethyl)-1H-pyrazol-3-yl)-2,7-naphthyridin-3-yl)cyclopropanecarboxamide], the Kd (TYK2 JH2; [2]) is reported as no more than 100 nM and the IC50 [1, 3] is reported as no more than 500 nM.

`CNc1ncc(-c2ccccc2)c2cc(NC(=O)C3CC3)ncc12` [Example 1, N-(8-(methylamino)-5-phenyl-2,7-naphthyridin-3-yl)cyclopropanecarboxamide] gave a Kd (TYK2 JH2; [2]) of no more than 100 nM and an IC50 [1, 3] greater than 500 nM.

`CNc1ncc(-c2nc3ccc(N4CC(O)C4)cn3n2)c2cc(NC(=O)C3CC3)ncc12` [Example 475, N-(5-(6-(3-hydroxyazetidin-1-yl)-[1,2,4]triazolo[1,5-a]pyridin-2-yl)-8-(methylamino)-2,7-naphthyridin-3-yl)cyclopropanecarboxamide] gave a Kd (TYK2 JH2; [4]) of no more than 100 nM and an IC50 [1, 5] of no more than 500 nM.

Compound `CCNc1ncc(-c2nc3ccc(N4CCOCC4)cn3n2)c2cc(NC(=O)C3(F)CC3)ncc12` [Example 580, N-(8-(ethylamino)-5-(6-morpholino-[1,2,4]triazolo[1,5-a]pyridin-2-yl)-2,7-naphthyridin-3-yl)-1-fluorocyclopropane-1-carboxamide] has a Kd (TYK2 JH2; [4]) of no more than 100 nM and an IC50 [1, 5] of no more than 500 nM.

In the case of `CNc1ncc(C#Cc2ncc(OC)cc2F)c2cc(NC(=O)C3CC3)ncc12` [Example 665, N-(5-((3-fluoro-5-methoxypyridin-2-yl)ethynyl)-8-(methylamino)-2,7-naphthyridin-3-yl)cyclopropanecarboxamide], the Kd (TYK2 JH2; [6]) is reported as no more than 100 nM and the IC50 [1, 5] is reported as no more than 500 nM.

`CNc1ncc(C#Cc2nccc3cc(C)sc23)c2cc(NC(=O)C3CC3)ncc12` [Example 1012, N-(8-(methylamino)-5-((2-methylthieno[2,3-c]pyridin-7-yl)ethynyl)-2,7-naphthyridin-3-yl)cyclopropanecarboxamide] gave a Kd (TYK2 JH2; [6]) of no more than 100 nM and an IC50 [1, 7] of no more than 500 nM.

Work on `CNc1ncc(C#Cc2ccc(OC3CN(C(C)=O)C3)cc2)c2cc(NC(=O)C3CC3)nnc12` [Example 893, N-(5-((4-((1-acetylazetidin-3-yl)oxy)phenyl)ethynyl)-8-(methylamino)pyrido[3,4-c]pyridazin-3-yl)cyclopropanecarboxamide] yielded a Kd (TYK2 JH2; [6]) of no more than 100 nM and an IC50 [1, 5] of no more than 500 nM.

Compound `O=C(Nc1cc2c(-c3nc4ccc(N5CCOCC5)cn4n3)cnc(NC3CC3)c2cn1)C1CC1` [Example 518, N-(8-(cyclopropylamino)-5-(6-morpholino-[1,2,4]triazolo[1,5-a]pyridin-2-yl)-2,7-naphthyridin-3-yl)cyclopropanecarboxamide] has a Kd (TYK2 JH2; [4]) of no more than 100 nM and an IC50 [1, 5] of no more than 500 nM.

With `CNc1ncc(-c2nc3cc(OC4CN(S(C)(=O)=O)C4)ccc3o2)c2cc(NC(=O)C3CC3)ncc12` [Example 250, N-(8-(methylamino)-5-(5-((1-(methylsulfonyl)azetidin-3-yl)oxy)benzo[d]oxazol-2-yl)-2,7-naphthyridin-3-yl)cyclopropanecarboxamide] the Kd (TYK2 JH2; [4]) was no more than 100 nM and the IC50 [1, 5] was no more than 500 nM.

In the case of `CNc1ncc(-c2nc3cc(N4CC5CN(C)CC(C4)O5)ccc3o2)c2cc(NC(=O)C3CC3)ncc12` [Example 327, N-(5-(5-(7-methyl-9-oxa-3,7-diazabicyclo[3.3.1]nonan-3-yl)benzo[d]oxazol-2-yl)-8-(methylamino)-2,7-naphthyridin-3-yl)cyclopropanecarboxamide], the Kd (TYK2 JH2; [4]) is reported as no more than 100 nM and the IC50 [1, 5] is reported as no more than 500 nM.

`CNc1ncc(C#Cc2ccc3c(c2)CCC(CF)O3)c2cc(NC(=O)C3CC3)ncc12` (stereo not shown) [Example 974, N-[5-[2-[2-(fluoromethyl)chroman-6-yl]ethynyl]-8-(methylamino)-2,7-naphthyridin-3-yl]cyclopropanecarboxamide] gave a Kd (TYK2 JH2; [6]) of no more than 100 nM and an IC50 [1, 5] of no more than 500 nM.

Work on `CCC(=O)Nc1cc2c(-c3nc4ccccc4o3)cnc(NC)c2cn1` [Example 428, N-(5-(benzo[d]oxazol-2-yl)-8-(methylamino)-2,7-naphthyridin-3-yl)propionamide] yielded a Kd (TYK2 JH2; [4]) of no more than 100 nM and an IC50 [1, 5] of no more than 500 nM.

Work on `CNc1ncc(-c2nc3cc(CC#N)ccc3o2)c2cc(NC(=O)C3CC3)ncc12` [Example 245, N-(5-(5-(cyanomethyl)benzo[d]oxazol-2-yl)-8-(methylamino)-2,7-naphthyridin-3-yl)cyclopropanecarboxamide] yielded a Kd (TYK2 JH2; [4]) of no more than 100 nM and an IC50 [1, 5] of no more than 500 nM.

In the case of `CNc1ncc(C#Cc2ccc(C(C)(F)F)cc2)c2cc(NC(=O)C3CC3)ncc12` [Example 655], the Kd (TYK2 JH2; [6]) is reported as no more than 100 nM and the IC50 [1, 5] is reported as no more than 500 nM.

`CNc1ncc(-c2nc3c(OC)cccc3o2)c2cc(NC(=O)C3CC3)ncc12` [Example 180, N-(5-(4-methoxybenzo[d]oxazol-2-yl)-8-(methylamino)-2,7-naphthyridin-3-yl)cyclopropanecarboxamide] showed a Kd (TYK2 JH2; [2]) of no more than 100 nM and an IC50 [1, 3] of no more than 500 nM.

Compound `CNc1ncc(C#Cc2ccc(OC3CN(S(C)(=O)=O)C3)cc2)c2cc(NC(=O)C3CC3)ncc12` [Example 715, N-(8-(methylamino)-5-((4-((1-(methylsulfonyl)azetidin-3-yl)oxy)phenyl)ethynyl)-2,7-naphthyridin-3-yl)cyclopropanecarboxamide] has a Kd (TYK2 JH2; [6]) of no more than 100 nM and an IC50 [1, 5] of no more than 500 nM.

Work on `CNc1ncc(-c2nc3cc(OC)ccc3o2)c2cc(NC(=O)[C@@H]3C[C@H]3F)ncc12` [Example 390, (1S,2R)-2-fluoro-N-(5-(5-methoxybenzo[d]oxazol-2-yl)-8-(methylamino)-2,7-naphthyridin-3-yl)cyclopropane-1-carboxamide] yielded a Kd (TYK2 JH2; [4]) of no more than 100 nM and an IC50 [1, 5] of no more than 500 nM.

Work on `CNc1ncc(-c2nc3cc(OC)ccc3o2)c2cc(NC(=O)[C@@H]3C[C@@H]3CF)ncc12` (racemic) [Example 399, 2-(fluoromethyl)-N-(5-(5-methoxybenzo[d]oxazol-2-yl)-8-(methylamino)-2,7-naphthyridin-3-yl)cyclopropane-1-carboxamide] yielded a Kd (TYK2 JH2; [4]) of no more than 100 nM and an IC50 [1, 5] of no more than 500 nM.

`CNc1ncc(-c2ccc(Oc3ccnc(C)c3)cc2)c2cc(NC(=O)C3CC3)ncc12` [Example 862, N-(8-(methylamino)-5-(4-((2-methylpyridin-4-yl)oxy)phenyl)-2,7-naphthyridin-3-yl)cyclopropanecarboxamide] showed a Kd (TYK2 JH2; [6]) of no more than 100 nM and an IC50 [1, 5] of no more than 500 nM.

Compound `CNc1ncc(-c2nc3ccc(N4CCC(F)C4)cn3n2)c2cc(NC(=O)C3CC3)ncc12` (stereo not shown) [Example 486, N-(5-(6-(3-fluoropyrrolidin-1-yl)-[1,2,4]triazolo[1,5-a]pyridin-2-yl)-8-(methylamino)-2,7-naphthyridin-3-yl)cyclopropanecarboxamide] has a Kd (TYK2 JH2; [4]) of no more than 100 nM and an IC50 [1, 5] of no more than 500 nM.

`CNc1ncc(-c2nc3cc(N4CCOCC4)ccc3o2)c2cc(NC(=O)[C@H]3C[C@H]3CF)ncc12` (single isomer, unassigned) [Example 451] showed a Kd (TYK2 JH2; [4]) of no more than 100 nM and an IC50 [1, 5] of no more than 500 nM.

`CNc1ncc(-c2nc3cc(N4CCOCC4)ccc3o2)c2cc(NC(=O)[C@H]3C[C@H]3C(F)F)ncc12` (single isomer, unassigned) [Example 1064] was tested, and the Kd (TYK2 JH2; [6]) was no more than 100 nM and the IC50 [1, 7] was no more than 500 nM.

Compound `CNc1ncc(-c2ccns2)c2cc(NC(=O)C3CC3)ncc12` [Example 84, N-(5-(isothiazol-5-yl)-8-(methylamino)-2,7-naphthyridin-3-yl)cyclopropanecarboxamide] has a Kd (TYK2 JH2; [2]) of no more than 100 nM and an IC50 [1, 3] greater than 500 nM.

Compound `[2H]C([2H])([2H])Nc1ncc(-c2nc3cc(N4CCOCC4)ccc3o2)c2cc(NC(=O)C3(F)CC3)ncc12` [Example 442, 1-fluoro-N-(8-((methyl-d3)amino)-5-(5-morpholinobenzo[d]oxazol-2-yl)-2,7-naphthyridin-3-yl)cyclopropane-1-carboxamide] has a Kd (TYK2 JH2; [4]) of no more than 100 nM and an IC50 [1, 5] of no more than 500 nM.

For `C=Cc1cc2cc(NC(=O)C3CC3)ncc2c(NC)n1` [Example 164, N-(8-(methylamino)-6-vinyl-2,7-naphthyridin-3-yl)cyclopropanecarboxamide], the Kd (TYK2 JH2; [2]) was 100 to 1000 nM and the IC50 [1, 3] was greater than 500 nM.

`CNc1ncc(C#Cc2ccc3nc(C(F)F)sc3c2)c2cc(NC(=O)C3CC3)ncc12` [Example 996, N-(5-((2-(difluoromethyl)benzo[d]thiazol-6-yl)ethynyl)-8-(methylamino)-2,7-naphthyridin-3-yl)cyclopropanecarboxamide] was tested, and the Kd (TYK2 JH2; [6]) was no more than 100 nM and the IC50 [1, 7] was no more than 500 nM.

`CNc1ncc(C#Cc2ccc(N3CCC3)cn2)c2cc(NC(=O)C3CC3)ncc12` [Example 726, N-(5-((5-(azetidin-1-yl)pyridin-2-yl)ethynyl)-8-(methylamino)-2,7-naphthyridin-3-yl)cyclopropanecarboxamide] showed a Kd (TYK2 JH2; [6]) of no more than 100 nM and an IC50 [1, 5] of no more than 500 nM.

Work on `CNc1ncc(C#Cc2ccc3c(c2)CCC(CO)O3)c2cc(NC(=O)C3CC3)ncc12` (stereo not shown) [Example 981] yielded a Kd (TYK2 JH2; [6]) of no more than 100 nM and an IC50 [1, 5] of no more than 500 nM.

With `[2H]C([2H])([2H])Nc1ncc(-c2nc3ccc(OC)cn3n2)c2cc(NC(=O)[C@H]3C[C@H]3F)ncc12` [Example 568, (1R,2R)-2-fluoro-N-(5-(6-methoxy-[1,2,4]triazolo[1,5-a]pyridin-2-yl)-8-((methyl-d3)amino)-2,7-naphthyridin-3-yl)cyclopropane-1-carboxamide] the Kd (TYK2 JH2; [4]) was no more than 100 nM and the IC50 [1, 5] was no more than 500 nM.
